{"source": "patent US11517603B2", "about": "“Bone remodeling accelerator” (HOKURIKU UNIVERSITY, priority 2017, dated 2022)", "key": {"[1]": {"test_system": "osteoblast differentiation of mouse bone marrow cells", "experiment": "Differentiation of osteoblast: ALP-positive osteoblast nodules in mouse bone marrow cell culture", "assay_type": "cell-based", "settings": "final concentration of 5 μM and 10 μM; p<0.05 or p<0.01; FIG. 1", "experimental": "Mouse bone marrow cells were seeded in each well of a microplate containing 0.5 mL Eagle minimum essential medium a modified type (α-MEM) (manufactured by MP Biomedicals INC.) at 2.5×10^6 cells/well, and cultured at 37° C., carbon dioxide concentration=5(v/v)%. […] On days 1 and 4 of culture, a differentiation induction reagent (0.2 mM ascorbic acid, 2.5 mM β-glycerophosphoric acid, 10 nM dexamethasone) was added to the following final concentrations. At 6 days from the culture, the cells were stained with alkaline phosphatase (ALP), observed with a microscope (inverted culture microscope “CK40”, manufactured by Olympus Corporation, magnification=40×), and the osteoblast nodule stained with ALP, i.e., cell nodule formed by differentiated osteoblast, was detected."}, "[2]": {"test_system": "osteoclast differentiation of mouse bone marrow cells", "experiment": "Differentiation of osteoclast: TRAP-positive osteoclasts in mouse bone marrow cell culture", "assay_type": "cell-based", "settings": "FIG. 2", "description": "Mouse bone marrow cells were seeded in each well of a microplate containing 0.5 mL α-MEM (manufactured by MP Biomedicals INC.) at 3.5×10^6 cells/well, and cultured at 37° C., carbon dioxide concentration=5(v/v)%. […] On days 1 and 4 of culture, a differentiation induction reagent (calcitriol) was added to a final concentration of 10 nM. At 6 days from the culture, the cells were stained with tartaric acid resistance acidic phosphatase (TRAP), observed with a microscope (inverted culture microscope “CK40”, manufactured by Olympus Corporation, magnification=40×), and the cells stained with TRAP, i.e., differentiated osteoclasts, were detected."}}}
{"smiles": "O=C1CC(c2ccc(O)c(O)c2)Oc2cc(OC3OC(CO)C(O)C(O)C3O)ccc21", "note": "[F2, 3′,4′,7-trihydroxyflavanone 7-O-β-D-glucopyranoside]", "values": [{"measurement": "number of ALP-positive osteoblast nodules versus control", "setting": "[1]", "result": "significant difference from the control"}, {"measurement": "final concentration at which a concentration-dependent differentiation accelerating action on osteoclast was exhibited", "setting": "[2]; TRAP-positive osteoclast number per well, 6 days of culture", "result": "≥ 2.5", "unit": "µM"}, {"measurement": "TRAP-positive osteoclast number versus control", "setting": "[2]; final concentration of 5 μM and 10 μM", "result": "significant difference of p<0.05"}]}
